On the set-up of data set [1]: method as in PMID 21082862. The conditions noted are these: cell line not stated; read-out: Cytotoxicity reported in the literature; cited from earlier work.
Data set [2] concerns non-cancerous human embryonic kidney HEK293T cells. The experiment in a line: Cytotoxicity, PrestoBlue assay, HEK293T. The format is cell-based. The conditions noted are these: 72 h, PrestoBlue, read-out: IC50 (µM) after 72 h, HEK293T. The protocol: (§1) counterpart, A2780cis, were procured from the European Collection of Cell
(§2) (ThermoFisher, USA) base medium supplemented with 10% Foetal Bovine
(§3) Serum (FBS; Sigma, Germany) and 1% of Penicillin-Streptomycin
(§4) (ThermoFisher, USA). Additionally, A2780cis cell line was cultured in the
(§5) drug. The human embryonic kidney cell line, HEK293T, and HeLa cell line were
(§6) obtained from American Type Culture Collection (ATCC, USA) and were cultured
(§7) in DMEM GlutaMAX (ThermoFisher, USA) base medium, supplemented with
(§8) 10% FBS and 1% of Penicillin-Streptomycin. All cell lines were maintained in a
(§9) humidified incubator at37 °C and 5% CO2.
(§10) 4.2. Cytotoxicity studies
(§11) cells/mL (A2780cis and HEK293T) was dispensed into flat bottom 96-well plates
(§12) and allowed to attach overnight. On the next day, 10 mM stock solutions of the
(§13) tested compounds were prepared in DMSO, then diluted with media to the final
(§14) concentration range of 0 - 100 µM and applied to the cells; 0.1% DMSO final
(§15) solution and 10 µM final concentration gambogic acid were used as negative and
(§16) positive controls, respectively. After 72 h incubation in a humidified incubator
(§17) under 5% CO2 at 37 °C, PrestoBlue™ cell viability reagent (Cat. No. A13262,
(§18) Invitrogen, USA) was added to cultures at a 1:10 ratio according to the
(§19) manufacturer instructions, and samples were incubated for 1.5 h. Fluorescence
(§20) at 560/590 nm was detected with Tecan Infinite 500 microplate reader (Tecan,
(§21) Switzerland). Three wells were assessed for each concentration of the tested
(§22) compounds and three independent experiments were performed. Non-linear
(§23) regression and IC50 value calculation were performed in GraphPad Prism 9 using
(§24) the build-in function “Dose response- Inhibition”.

Data set [3] has as its system DNA synthesis in HeLa cells. The experiment in a line: EdU incorporation assay, fluorescence cell microscopy. The conditions noted are these: 3 µM, 24 h, gemcitabine = 100%, DMSO = 0%. The format is cell-based. From the text:
The inhibitory effect of Pt1^Y and Pt2^Y (Y = NR, O, S) on DNA synthesis during cell proliferation was quantified in cellulo using an EdU incorporation assay and fluorescence cell microscopy (Fig. 6 and SI Fig. 12).[70] Gemcitabine, a clinically-approved DNA synthesis inhibitor,[71] was used as a positive control (100% inhibition), and the cells treated with an equivalent amount of DMSO served as a negative control (“untreated”, 0% inhibition). Cisplatin and transplatin were included as references. DNA synthesis was blocked to various degrees in the cells treated with the different platinum complexes. […]
4.4. EdU incorporation assay
EdU incorporation assay was performed using a Click-iT EdU Imaging kit
(C10086, Thermo Fisher, Switzerland) according to the manufacturer’s protocol.
HeLa cells were seeded into a black 96-well PhenoPlate with optically clear flat-bottom (Revity 6055302) at a concentration of 4000 cells per well. After 24 h, the cells were treated with the tested compounds Pt1Y and Pt2Y (Y = NR, O, S), […]
of the compounds in HeLA cells). Gemcitabine (1 and 3 µM) and an equal volume of DMSO were used as positive and negative control, respectively. Each condition was tested in triplicate. The assay was performed after an incubation of 24 h. The cells were additionally stained by Hoechst 33342 diluted in PBS with 3% BSA. The fluorescent signal was detected with the widefield INCell 2200 microscope (GE health care, USA) using a 10X/0.45 objective. The DAPI channel was used for Hoechst 33342 emitting blue (λex = 390/ 18 nm, λem = 432.5/ 48 nm), and the FITC channel for Edu-AlexaFluor-488 (λex = 475/ 28 nm, λem = 511.5/23 nm) emitting in green. For each well, 9 fields of view were captured. Image analysis was performed using CellProfiler (v4.2.5), CellProfiler Analyst (v3.0.4) and FIJI (v1.54k) software. Images were first pre -processed (correction for flat - field illumination using a Gaussian-based smoothing filter and rescaled for segmentation). All cells were segmented using the minimum cross -entropy thresholding method on an intermediate image composed of the addition of 2 channels imaged. For all cells, featur es of size, shape, and fluorescence intensities were extracted. Cells were then either classified directly as live or dead based on a combination of their size and EdU staining intensity or classified automatically as live or dead using a machine learning -based random forest classifier model in a multiparametric approach. The readout used is the average percentage of live or dead cells in each condition and the values are normalised to gemcitabine at 3 μM and DMSO (untreated) with the corresponding volume at […]

Data set [4] in a line: n-octanol/water partition coefficient. The format is physicochemical. The settings on record: n-octanol/water. From the text:
Resistance index (RI) ^a, and n-octanol/water partition coefficients (logPOW) | column: logPOW

Data set [5] has as its system ovarian cancer cell lines (A2780 and A2780cis). Put plainly: Cytotoxicity stated jointly for both ovarian cancer cell lines. The conditions noted are these: read-out: Cytotoxicity (IC50) in the ovarian cancer cell lines, A2780 and A2780cis together, approximate text values, 72 h. The protocol:
as §1, §2, §3, §4, §5, §6, §7, §8, §9, §10, §11, §12, §13, §14, §15, §16, §17, §18, §19, §20, §21, §22, §23, §24

Data set [6] concerns A2780cis cells with acquired resistance to cisplatin. The experiment in a line: Cytotoxicity, PrestoBlue assay, A2780cis. The format is cell-based, human. The conditions noted are these: for IC50: 72 h, PrestoBlue, read-out: IC50 (µM) after 72 h, A2780cis; for Resistance index (RI): RI = IC50 A2780cis/IC50 A2780. The protocol: as §1, §2, §3, §4, §5, §6, §7, §8, §9, §10, §11, §12, §13, §14, §15, §16, §17, §18, §19, §20, §21, §22, §23, §24

For data set [7], the system named is A2780 ovarian cancer cell line. The experiment in a line: Cytotoxicity, PrestoBlue assay, A2780. The format is cell-based, human. The conditions noted are these: 72 h, PrestoBlue, read-out: IC50 (µM) after 72 h, A2780. The protocol:
as §1, §2, §3, §4, §5, §6, §7, §8, §9, §10, §11, §12, §13, §14, §15, §16, §17, §18, §19, §20, §21, §22, §23, §24

The test system of data set [8] is A2780, A2780cis and HEK293T cell lines. Put plainly: Cytotoxicity stated jointly for all three cell lines. The format is cell-based, human. The conditions noted are these: HEK293T together, 72 h. The protocol:
as §1, §2, §3, §4, §5, §6, §7, §8, §9, §10, §11, §12, §13, §14, §15, §16
under 5% CO2 at 37 °C, PrestoBlue™ cell viability reagent (Cat. No. A13262, […]
as §19, §20
Switzerland). Three wells were assessed for each concentration of the tested […]

For data set [9] the following is noted: n-octanol/water; cited from earlier work.

The text below walks through data of paper PMC12794336, “Unconventional chalcogen-containing azolylidene metal complexes as potential anticancer therapeutics” (Chemical Science, 2025).

Molecules are shown by their SMILES. Read-outs that look alike come from different tables or passages of the source. A value given as a limit tells only on which side of the number the result lay.

Turning to `CCn1[c]([Au-][Cl])[n+](CC)c2ccccc21` [same complex bearing a chlorido ligand], in data set [1], the IC50 was 6.4 ± 2 µM.
Turning to `[I][Pt-2]([I])([c]1occ[n+]1Cc1ccccc1)[n+]1ccccc1` [Pt2^O], the IC50 in data set [2] (listed as Pt2^S) was 9 ± 2 µM; in data set [2] it was 6 ± 2 µM; in data set [5], roughly 5 µM; in data set [5] (listed as Pt2^S), roughly 8 µM; in data set [6] (listed as Pt2^S), 12 ± 3 µM; in data set [6] it was 5 ± 2 µM. Further, the results for the IC50 in data set [7] (listed as Pt2^S) and in data set [7] were 6 ± 1 µM and 4 ± 1 µM, respectively. Also, the “Degree of inhibition of DNA synthesis” value in data set [3] came out at 37%; in data set [3] (listed as Pt2^S), 24%. The logPOW in data set [4] is listed as 1.6 ± 0.2; in [4] (listed as Pt2^S), 1.8 ± 1.0. In addition, the “Resistance index (RI)” value in data set [6] was 1.5; in data set [6] (listed as Pt2^S) it was 2.2.
For the molecule `Cc1ccc(C(C)C)cc1.[Cl][Ru]([Cl])[PH]12CN3CN(CN(C3)C1)C2` [RAPTA-C, reference compound], the IC50 in [2], in data set [6], in data set [7] and in data set [8] was greater than 100 µM in each case. Besides, the logPOW in data set [9] was −1.8 (ref. [64]).
